Experiment [1] in a line: cells. It counts as functional, cell-based.
A short description of experiment [2]: cells. It counts as functional, cell-based. This is another data set of the same source.
A further experiment deals with T1, Protein skinhead-1 (Caenorhabditis elegans, UniProt P34707).
T1 sequence (P34707 whole entry): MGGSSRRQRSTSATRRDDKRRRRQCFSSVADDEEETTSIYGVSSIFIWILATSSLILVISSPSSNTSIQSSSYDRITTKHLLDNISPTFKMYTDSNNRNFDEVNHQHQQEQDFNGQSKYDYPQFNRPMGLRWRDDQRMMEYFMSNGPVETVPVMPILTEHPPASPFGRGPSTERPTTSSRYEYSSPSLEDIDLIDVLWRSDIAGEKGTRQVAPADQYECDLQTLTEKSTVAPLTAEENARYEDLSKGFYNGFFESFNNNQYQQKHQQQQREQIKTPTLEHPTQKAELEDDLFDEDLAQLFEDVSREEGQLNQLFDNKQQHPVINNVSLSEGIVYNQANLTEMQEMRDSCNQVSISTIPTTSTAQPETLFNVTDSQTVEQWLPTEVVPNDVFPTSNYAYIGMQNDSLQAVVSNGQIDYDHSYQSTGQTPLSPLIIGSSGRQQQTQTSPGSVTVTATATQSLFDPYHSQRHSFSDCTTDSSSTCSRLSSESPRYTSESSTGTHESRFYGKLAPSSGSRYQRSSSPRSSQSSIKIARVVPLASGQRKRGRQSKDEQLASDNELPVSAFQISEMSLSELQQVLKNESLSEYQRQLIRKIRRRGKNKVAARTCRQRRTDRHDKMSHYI
The class given is functional.

Experiment [3] has as its target T2, Replicative DNA helicase DnaB (Mycobacterium tuberculosis, UniProt P9WMR3).
T2 sequence (P9WMR3 whole entry): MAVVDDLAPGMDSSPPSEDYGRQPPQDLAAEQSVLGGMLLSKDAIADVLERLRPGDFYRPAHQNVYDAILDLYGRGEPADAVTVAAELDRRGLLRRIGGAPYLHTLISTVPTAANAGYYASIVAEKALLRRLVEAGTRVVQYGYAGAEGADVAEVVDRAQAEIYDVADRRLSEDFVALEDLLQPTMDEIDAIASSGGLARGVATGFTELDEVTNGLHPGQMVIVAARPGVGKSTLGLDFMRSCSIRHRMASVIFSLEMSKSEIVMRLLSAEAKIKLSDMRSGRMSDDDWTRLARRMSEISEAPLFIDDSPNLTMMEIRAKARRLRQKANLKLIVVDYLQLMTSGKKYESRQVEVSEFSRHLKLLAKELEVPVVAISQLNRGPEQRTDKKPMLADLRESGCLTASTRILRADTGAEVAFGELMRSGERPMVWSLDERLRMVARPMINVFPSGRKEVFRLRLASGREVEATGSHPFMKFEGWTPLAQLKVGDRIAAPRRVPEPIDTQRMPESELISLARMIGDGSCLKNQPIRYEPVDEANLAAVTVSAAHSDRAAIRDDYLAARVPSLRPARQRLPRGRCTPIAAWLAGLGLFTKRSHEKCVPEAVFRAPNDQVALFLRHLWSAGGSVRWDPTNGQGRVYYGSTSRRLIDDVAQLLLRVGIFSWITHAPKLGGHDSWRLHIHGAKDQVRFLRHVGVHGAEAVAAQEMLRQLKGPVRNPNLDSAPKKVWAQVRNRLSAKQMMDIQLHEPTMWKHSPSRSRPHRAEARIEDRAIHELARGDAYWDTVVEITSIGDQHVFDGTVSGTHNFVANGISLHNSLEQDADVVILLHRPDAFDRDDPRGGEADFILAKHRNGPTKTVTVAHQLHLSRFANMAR
Description: DnaB intein splicing inhibitors, dose response, biochemical, cell-free fluorescence (AID 449749). It counts as functional.

The target in a further experiment is T3, Protein RecA (Mycobacterium tuberculosis, UniProt P9WHJ3).
T3 sequence (P9WHJ3 whole entry): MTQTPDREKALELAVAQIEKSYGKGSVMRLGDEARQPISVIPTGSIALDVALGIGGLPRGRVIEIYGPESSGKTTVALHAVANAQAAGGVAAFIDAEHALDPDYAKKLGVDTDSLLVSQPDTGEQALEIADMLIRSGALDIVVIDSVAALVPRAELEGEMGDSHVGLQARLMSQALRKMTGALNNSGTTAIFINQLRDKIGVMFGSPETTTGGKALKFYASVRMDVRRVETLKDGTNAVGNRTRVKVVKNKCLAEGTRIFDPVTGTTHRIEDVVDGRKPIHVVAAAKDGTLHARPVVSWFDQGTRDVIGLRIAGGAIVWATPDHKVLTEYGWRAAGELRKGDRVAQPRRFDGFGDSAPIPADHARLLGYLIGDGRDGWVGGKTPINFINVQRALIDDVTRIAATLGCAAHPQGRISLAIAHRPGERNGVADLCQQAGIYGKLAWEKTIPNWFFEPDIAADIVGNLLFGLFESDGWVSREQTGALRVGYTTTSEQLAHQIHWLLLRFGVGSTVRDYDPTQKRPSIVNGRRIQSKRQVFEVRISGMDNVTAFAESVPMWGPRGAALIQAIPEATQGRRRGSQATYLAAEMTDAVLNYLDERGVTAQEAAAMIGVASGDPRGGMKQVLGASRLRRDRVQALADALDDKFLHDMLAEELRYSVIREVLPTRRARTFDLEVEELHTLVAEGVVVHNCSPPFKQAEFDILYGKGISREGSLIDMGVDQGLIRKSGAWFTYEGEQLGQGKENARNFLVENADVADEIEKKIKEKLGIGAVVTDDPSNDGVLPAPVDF
Description: Fluorescence Cell-Free Homogeneous Dose Retest to Identify Inhibitors of RecA-Intein Splicing Activity. [Related pubchem assays (depositor defined):AID2097, AID2223, AID489010, AID492950]. It counts as functional.

In another experiment the test system is INS1. Description: INS-1E survival protection against cytokine death – cell-based, luminescence, retest, dose response (AID 449756).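 Further: cell death triggered by IL-1 beta plus TNF-alpha plus IFN-gamma mixture; protective hits raise ATP signal compared with cytokine alone wells.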 It counts as functional. The note with it: Rattus norvegicus.
The nature of experiment [4]: Luminescence Cell-Based Dose Retest to Confirm Inhibitors of Cancer Stem Cells. [Related pubchem assays (depositor defined):AID2717, AID2721]. The class given is functional. The note with it: Homo sapiens.
Experiment [5] concerns the target T4, RNA-binding protein pos-1 (Caenorhabditis elegans, UniProt G5EF15).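 Further: purified POS-1 fused to maltose binding protein made in E. coli; potency of compounds blocking POS-1 binding to fluorescent RNA.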
T4 sequence (G5EF15 whole entry): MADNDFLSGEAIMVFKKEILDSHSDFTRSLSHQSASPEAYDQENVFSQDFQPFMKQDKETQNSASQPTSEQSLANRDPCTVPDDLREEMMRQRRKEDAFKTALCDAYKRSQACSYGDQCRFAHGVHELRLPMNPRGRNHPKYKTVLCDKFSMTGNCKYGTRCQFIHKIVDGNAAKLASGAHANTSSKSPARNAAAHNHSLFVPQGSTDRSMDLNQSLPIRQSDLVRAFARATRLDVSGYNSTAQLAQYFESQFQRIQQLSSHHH
Description: disruptors of C. elegans POS-1 RNA interaction – biochemical, fluorescence polarization, dose response (AID 1964). (Fluorescence polarisation rises when a labelled molecule tumbles more slowly, as on binding a larger partner.)

In experiment [6] the target is T5, Zinc finger protein mex-5 (Caenorhabditis elegans, UniProt Q9XUB2).
T5 sequence (Q9XUB2 whole entry): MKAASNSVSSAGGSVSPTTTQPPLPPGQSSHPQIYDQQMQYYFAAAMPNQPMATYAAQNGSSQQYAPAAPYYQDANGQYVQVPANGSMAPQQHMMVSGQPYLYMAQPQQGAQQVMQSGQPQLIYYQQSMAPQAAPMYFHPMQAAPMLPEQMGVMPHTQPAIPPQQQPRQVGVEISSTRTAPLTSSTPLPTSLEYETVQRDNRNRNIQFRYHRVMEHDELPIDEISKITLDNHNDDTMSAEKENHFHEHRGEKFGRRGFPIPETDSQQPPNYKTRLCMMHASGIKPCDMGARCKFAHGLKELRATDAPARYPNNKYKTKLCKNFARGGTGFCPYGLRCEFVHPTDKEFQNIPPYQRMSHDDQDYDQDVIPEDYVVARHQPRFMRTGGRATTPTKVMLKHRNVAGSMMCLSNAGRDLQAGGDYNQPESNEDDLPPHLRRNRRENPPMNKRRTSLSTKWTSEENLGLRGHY
Description: potency of MEX-5 RNA-binding blockers – biochemical, C. elegans, fluorescence polarization, dose response (AID 1960).

Experiment [7] is described as follows: luciferase reporter signal suppression in cells – H4 neuroglioma cells, luminescence, dose response (AID 1990). The class given is functional, cell-based.
A short description of experiment [8]: alpha-synuclein stem-loop luciferase translation blockers – H4 neuroglioma cells, luminescence, confirmation (AID 1988). The class given is functional, cell-based.
Experiment [9] can be described thus: Luminescence Cell-Based Dose Response HTS to Identify Inhibitors of 5'UTR Stem-Loop Driven Prion Protein mRNA Translation in H4 Neuroglioblastoma Cells. [Related pubchem assays: 1827 (Project Summary), 1813 (Primary HTS)]. The class given is functional.
Experiment [10] can be described thus: Luminescence Cell-Based Dose Confirmation HTS to Identify Activators of 5'UTR Stem-Loop Driven Alpha-Synuclein mRNA Translation in H4 Neuroglioblastoma Cells. [Related pubchem assays: 1829 (Project Summary), 1814 (Primary HTS)]. It counts as functional.
The next experiment concerns H4. Description: Luminescence Cell-Based Dose Response HTS to Identify Activators of 5'UTR Stem-Loop Driven Prion Protein mRNA Translation in H4 Neuroglioblastoma Cells. [Related pubchem assays: 1829 (Project Summary), 1814 (Primary HTS)]. The class given is functional. The note with it: Homo sapiens.
Experiment [11] can be described thus: Luminescence Cell-Based Dose Response HTS to Identify Activators of Luciferase Translation or Activity in H4 […] Cells. [Related pubchem assays: 1829 (Project Summary), 1814 (Primary HTS)]. It counts as functional.

Each structure is given as a SMILES string. Calls of active or inactive are those of the source. For most assays here, no stated cut-off is given here; in the data, actives have a measured EC50 and inactives only a lower limit. Where only a bound is given, the exact number is not on record here.

For the molecule `Cc1nnc(SCc2cccc(Cl)c2)n(N)c1=O`, the EC50 in “cells [1]” and in the experiment “cells [2]” was > 350 µM (not active) each time.

As for `CC(=O)Nc1ccc(NC(=O)C2Cc3c(-c4cccc(F)c4)ccnc3O2)cc1` (stereo not drawn), the IC50 (commonly the concentration needed to halve the response being measured) at Protein skinhead-1 was > 100 µM (inactive).

As to `COc1nccc(C(F)(F)F)c1C(=O)NC(=O)Nc1ccccc1`, the 50% effective concentration (EC50) in “cells [1]” and in the experiment “cells [2]” was > 350 µM (not active) in each case.

For `CCCCOC(=O)Nc1ccc(C(C)C)cc1`, the IC50 at Protein skinhead-1 is 42.4 µM (active).

As to `Cc1cccc(CSC(Nc2ccc(F)cc2)=C(C#N)C#N)c1`, the results for the AC50 (in [3]; in the experiment on INS1) were 7.03 µM (active) and 4.83 µM (active), respectively. For the same molecule, at Protein RecA, the half-maximal effective concentration (EC50) (as a rule, the concentration at which the effect is half-maximal) was 10.9 µM (active).

`CC1OC(c2ccccc2)OC2COC(c3ccccc3)OC12` (stereo not drawn): on Protein skinhead-1, the IC50 was > 100 µM (inactive).

Consider `COc1ccccc1CCNS(=O)(=O)c1cc2c3c(c1)C(C)C(=O)N3CCC2` (stereo not drawn), for which the EC50 in “cells [1]” and in the experiment “cells [2]” was > 350 µM (not active) throughout.

On to `CS(=O)(=O)c1ccc(C(=O)OCC(=O)NC23CC4CC(CC(C4)C2)C3)cc1[N+](=O)[O-]`, for which the results for the AC50 in experiment [4] and in experiment [3] were 2.4 µM (active) and 1.18 µM (active), respectively. Besides, on Protein RecA, the EC50 was 1.32 µM (active).

As for `CCNc1nc(Cl)nc(NNC(=O)C(C)Oc2ccccc2)n1` (stereo not drawn), the results for the EC50 in the experiment “cells [1]” and in “cells [2]” were 47 µM (active) and > 350 µM (not active), respectively.

With `CC(=O)N1c2ccc(S(=O)(=O)NCCc3ccccc3)cc2CC1C` (stereo not drawn), the half-maximal effective concentration (EC50) in the experiment “cells [1]” and in the experiment “cells [2]” was > 350 µM (not active) in each case.

`N#C/C(=C/c1cccn1-c1cccc(C(=O)O)c1)c1ccc(F)cc1`: the EC50 is > 300 µM (not active) in experiment [5], > 380 µM (inconclusive) at Protein RecA and > 300 µM (not active) in experiment [6]. The AC50 (as a rule, the concentration giving half of the maximal activity seen) in experiment [3] was 14.1 µM (active).

For `CC(C)c1ccc2oc(=O)cc(CN3CCOCC3)c2c1`, the EC50 in the experiment “cells [1]” and in the experiment “cells [2]” was > 350 µM (not active) in each case.

In the case of `Cc1cccc(C)c1OCC(O)CN(Cc1ccccc1O)C1CCCCC1` (stereo not drawn), at Protein skinhead-1, the IC50 is > 100 µM (inactive). Moreover, the EC50 in [7], in experiment [8] and in [9] was > 120 µM (not active) throughout.

For `Cc1cc(C(=O)CSc2nnc(-c3cccs3)n2Cc2ccccc2)c(C)n1C`, the IC50 on Protein skinhead-1 was > 100 µM (inactive).

Consider `C(=C\c1ccc2ccccc2n1)/c1ccccc1`, for which the 50% inhibitory concentration (IC50) at Protein skinhead-1 is 24.8 µM (active).

Consider `Cc1ccccc1-n1c(=O)n(Cc2ccc(C(=O)O)cc2)c(=O)c2[nH]cnc21`, for which the EC50 in “cells [1]” and in the experiment “cells [2]” was > 350 µM (not active) in each case.

`C(#Cc1ccc2c(c1)COc1c3ccccc3nn1-2)c1ccccc1`: the IC50 at Protein skinhead-1 was > 100 µM (inactive). Besides, the EC50 in experiment [5] is > 300 µM (not active); in experiment [6], 169 µM (active).

Turning to `Cc1cc(NC(=O)c2ccccc2)n(-c2nc3ccccc3[nH]2)n1`, the EC50 was 63.9 µM (active) in “cells [1]” and > 350 µM (not active) in the experiment “cells [2]”.

On to `Cc1cc(C)c(NC(=O)C[S+]([O-])CC(=O)Nc2ccc(N3CCOCC3)cc2)c(C)c1` (stereo not drawn), for which the IC50 at Protein skinhead-1 is > 100 µM (inactive).

On to `CCOc1ccc2c(=O)c(Oc3ccccc3OCC)coc2c1`, for which the EC50 in experiment [10] is 7.35 µM (active); in the experiment on H4 it was 19.3 µM (active); in experiment [11], 7.99 µM (active). Moreover, the IC50 at Protein skinhead-1 was > 100 µM (inactive).

Regarding `Cc1cccc(C(=O)O/N=C(\N)c2ccc(Cl)cc2)c1`, the EC50 in the experiment “cells [1]” was 16.7 µM (active); in the experiment “cells [2]” it was > 350 µM (not active).

With `O=C(/C=C/c1ccco1)N1CCc2ccccc21`, the IC50 at Protein skinhead-1 was 48.6 µM (active).

As for `Cc1ccc(Nc2nc(CSc3nnc(-c4ccncc4)n3C)cs2)cc1`, the EC50 in “cells [1]” and in “cells [2]” was > 350 µM (not active) in each case.

The values above are taken from ChEMBL document CHEMBL1201862, “PubChem BioAssay data set” (2004).
